Where two headings read alike, the source gives them in different places.

For data set [1], the target named is T1, α-Glucosidase (AGS) (Saccharomyces cerevisiae, UniProt P53341). Put plainly: Inhibition kinetics analysis (Lineweaver–Burk plots and secondary plots). Type of data set: biochemical. Particulars: for inhibition type against AGS: Lineweaver–Burk plots. On the procedure: Although several 2,5-DKP containing cyclodipeptides have been reported to inhibit the activity of AGS to different extents, little is known on the inhibition kinetics of these inhibitors. Herein, the inhibition kinetic mechanisms of 3, 8, 9, 11, 14, 16, and 17 against AGS were analyzed using the Lineweaver–Burk plots. The inhibition constants Ki and Ki’ of the inhibitors were calculated by secondary plots of “slope versus [I]” and “Y-intercept versus [I]”, respectively. […] This postulation was reinforced by the varied Km/Vmax values which were not in accordance with uncompetitive inhibition. However, the replots of the slope and y-intercept versus the concentration of 14 and 17 were not linearly fitted, which limited the application of Equations (3) and (4). […] It was interesting that seven cyclodipeptide congeners tended to inhibit the activity of AGS in four different manners, which was proposed to be caused by different substitutions on the 2,5-DKP moiety.
The mode of inhibition was determined by the Lineweaver–Burk plot using GraphPad Prism 8.0 software. The Km and Vmax values were obtained from the slope and y-axis intercept of the Lineweaver–Burk plot based on Equations (1) and (2):(1) Vmax=1/Y-intercept (2) Km=slope× Vmax
The Ki and Ki’ values were calculated by secondary plotting of the slope and y-intercept on the Lineweaver–Burk plot versus the inhibitor [I] based on Equations (3) and (4):(3) Slope=Km/Vmax+Km[I]/VmaxKi (4) Y-intercept=1/Vmax+[I]/VmaxKi^′

Data set [2] has as its target T1, α-Glucosidase (AGS). Put plainly: biochemical. Conditions: read-out: AGS inhibitory activity IC50. The procedure: The AGS inhibitory activity was evaluated following the methods reported in the literature.
A short description of data set [3]: In vitro cytotoxicity MTT assay. In kind it is cell-based. Particulars: human. On the procedure:
To preliminarily evaluate the safety of the AGS inhibitors, the in vitro cytotoxicity of 3, 8, 9, 11, 14, 16, and 17 toward human normal hepatocyte (LO2) cells was tested by MTT assay. […] Since cancer and diabetes are linked, these compounds need to be evaluated for cytotoxicity against a panel of cancer cell lines to assess their safety profile at least in vitro in future studies.
The LO2 cell line was cultured in a 1640 medium supplemented with 10% fetal bovine serum, 100 U/mL of penicillin, and 0.1 mg/mL of streptomycin in a humidified incubator with a 5% CO2 atmosphere at 37 °C. The cells were seeded in 96-well plates at a density of 3 × 10^3 cells per well. After 12 h, the medium in the wells was replaced by 100 µL of fresh medium containing drugs of six different concentrations. After incubation for another 48 h, the medium was removed and the fresh medium containing 10 µL of MTT (5 mg/mL) were added to each well and incubated for 4 h. Then, the medium was replaced by 100 µL of DMSO to dissolve the formazan crystals. OD570 was detected on a microplate reader. Parallel triplicate replication was performed for each dose, and the IC50 values were calculated.

[4] abbreviates: inhibitor concentration 0.04 mM.
[5] abbreviates: inhibitor concentration 0.06 mM.
Setting [6] is: inhibitor concentration 0.08 mM.
The mark [7] stands for this setting: secondary plot of Y-intercept versus [I], binding to AGS-substrate complex, read-out: Ki.
Where [8] appears, read: inhibitor concentration 0.05 mM.
[9] abbreviates: inhibitor concentration 0.07 mM.
[10] abbreviates: inhibitor concentration 0.09 mM.
[11] abbreviates: inhibitor concentration 0.10 mM.

T1 sequence (P53341 whole entry): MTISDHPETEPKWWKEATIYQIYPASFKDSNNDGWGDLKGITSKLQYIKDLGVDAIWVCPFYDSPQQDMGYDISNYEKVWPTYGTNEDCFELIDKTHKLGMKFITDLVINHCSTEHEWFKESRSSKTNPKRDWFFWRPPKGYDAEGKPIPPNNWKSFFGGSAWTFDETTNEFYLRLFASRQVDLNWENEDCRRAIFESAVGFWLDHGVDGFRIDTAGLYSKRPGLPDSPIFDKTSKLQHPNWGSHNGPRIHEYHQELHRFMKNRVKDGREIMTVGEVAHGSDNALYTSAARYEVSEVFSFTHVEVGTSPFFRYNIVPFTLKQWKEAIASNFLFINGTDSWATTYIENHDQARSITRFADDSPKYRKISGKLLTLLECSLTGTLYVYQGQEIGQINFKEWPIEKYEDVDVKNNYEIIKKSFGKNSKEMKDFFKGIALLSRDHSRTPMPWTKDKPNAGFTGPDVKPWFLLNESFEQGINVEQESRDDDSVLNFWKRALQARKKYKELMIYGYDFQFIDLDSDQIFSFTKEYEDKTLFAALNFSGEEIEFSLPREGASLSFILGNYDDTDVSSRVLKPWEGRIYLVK

Turning to `COC1CCC=C(C)C(=O)Nc2cc(O)cc(c2)CC(C)CC(OC)C(O)C(C)C=C(C)C1OC(N)=O` (stereo not shown) [Compound 3, autolytimycin], on α-Glucosidase (AGS) [1], the “inhibition type against AGS” value is on record as “non-competitive inhibitors”. Also, the Vmax at α-Glucosidase (AGS) [1] (setting [4]) turned out to be 0.86 ± 0.03 µM/min; on α-Glucosidase (AGS) [1] (setting [5]) it was 0.67 ± 0.04 µM/min; on α-Glucosidase (AGS) [1] (setting [6]) it was 0.46 ± 0.03 µM/min. Moreover, the Ki is 53.10 µM at α-Glucosidase (AGS) [1] (setting [7]) and 49.2 µM at α-Glucosidase (AGS) [1] (secondary plot of slope versus [I], binding to free AGS, read-out: Ki). For the same compound, the IC50 at α-Glucosidase (AGS) [2] amounted to 35.8 ± 0.4 µM. Moreover, the half-maximal inhibitory concentration (IC50) at 48 h in data set [3] is > 100 µM.
Turning to `O=C1N[C@@H](Cc2c[nH]c3ccccc23)C(=O)N2CCC[C@@H]12` [Compound 8, cyclo(L-Pro-L-Trp)], the Ki on α-Glucosidase (AGS) [1] amounted to 43.9 µM; on α-Glucosidase (AGS) [1] (setting [7]) it was 46.28 µM. Moreover, on α-Glucosidase (AGS) [1], the “inhibition type against AGS” value was “non-competitive inhibitors”. The Vmax came to 0.85 ± 0.05 µM/min on α-Glucosidase (AGS) [1] (inhibitor concentration 0.02 mM), 0.66 ± 0.03 µM/min at α-Glucosidase (AGS) [1] (inhibitor concentration 0.03 mM) and 0.41 ± 0.03 µM/min at α-Glucosidase (AGS) [1] (setting [6]). At α-Glucosidase (AGS) [2], the IC50 worked out at 53.8 ± 1.88 µM. Also, in data set [3] (LO2 cells (human normal hepatocyte cell line), MTT, 48 h incubation, read-out: Cytotoxicity IC50 against LO2 cells), the 50% inhibitory concentration (IC50) at 48 h is > 100 µM.
On to `O=C1N[C@@H](Cc2c[nH]c3ccccc23)C(=O)N[C@H]1CO` [Compound 9, cyclo(L-Ser-L-Trp)], for which the inhibitory constant (Ki) was determined as 149 µM on α-Glucosidase (AGS) [1] and 238.78 µM at α-Glucosidase (AGS) [1] (setting [7]). Moreover, the “inhibition type against AGS” value on α-Glucosidase (AGS) [1] is reported as “mixed-type manner”. For the same compound, the Vmax at α-Glucosidase (AGS) [1] (setting [8]) came to 1.33 ± 0.17 µM/min; on α-Glucosidase (AGS) [1] (setting [6]), 1.11 ± 0.14 µM/min; at α-Glucosidase (AGS) [1] (inhibitor concentration 0.20 mM), 0.89 ± 0.22 µM/min. Also, the IC50 at α-Glucosidase (AGS) [2] amounted to 164 ± 15.5 µM. Also, the IC50 at 48 h in data set [3] is > 100 µM.
`CC[C@H](C)[C@@H]1NC(=O)[C@H](Cc2ccc(O)cc2)NC1=O` [Compound 11, cyclo(L-Ile-L-Tyr)]: the inhibitory constant (Ki) is 95.5 µM at α-Glucosidase (AGS) [1] and 531.53 µM on α-Glucosidase (AGS) [1] (setting [7]). Moreover, the “inhibition type against AGS” value against α-Glucosidase (AGS) [1] is “mixed-type manner”. The maximum rate (Vmax) on α-Glucosidase (AGS) [1] (setting [5]) is 0.98 ± 0.05 µM/min; on α-Glucosidase (AGS) [1] (setting [9]), 0.94 ± 0.02 µM/min; on α-Glucosidase (AGS) [1] (setting [10]), 0.90 ± 0.05 µM/min. Moreover, on α-Glucosidase (AGS) [2], the 50% inhibitory concentration (IC50) amounted to 101 ± 2.52 µM. Further, the half-inhibitory concentration (IC50) at 48 h in data set [3] is > 100 µM.
On to `O=C1NC(Cc2ccccc2)C(=O)NC1CO` [Compound 14, cyclo(L-Ser-L-Phe)], for which the “inhibition type against AGS” value at α-Glucosidase (AGS) [1] is given as “competitive inhibitor”. Moreover, the Vmax at α-Glucosidase (AGS) [1] (setting [4]) worked out at 0.81 ± 0.06 µM/min; at α-Glucosidase (AGS) [1] (setting [10]), 0.76 ± 0.04 µM/min; at α-Glucosidase (AGS) [1] (setting [11]), 0.83 ± 0.18 µM/min. Also, on α-Glucosidase (AGS) [2], the IC50 was 62.2 ± 0.11 µM. Moreover, in data set [3], the IC50 at 48 h was > 100 µM.
As to `CC[C@H](C)[C@@H]1NC(=O)[C@H](CC(C)C)NC1=O` [Compound 16, cyclo(L-Leu-L-Ile)], the inhibition constant Ki was determined as 59.8 µM at α-Glucosidase (AGS) [1] and 78.89 µM on α-Glucosidase (AGS) [1] (setting [7]). Further, the “inhibition type against AGS” value against α-Glucosidase (AGS) [1] is recorded as “mixed-type manner”. Also, the Vmax on α-Glucosidase (AGS) [1] (setting [8]) turned out to be 1.07 ± 0.13 µM/min; on α-Glucosidase (AGS) [1] (setting [6]) it was 0.86 ± 0.11 µM/min; at α-Glucosidase (AGS) [1] (setting [11]), 0.74 ± 0.07 µM/min. For the same compound, on α-Glucosidase (AGS) [2], the IC50 is 74 ± 1.25 µM. The half-inhibitory concentration (IC50) at 48 h in data set [3] is > 100 µM.
On to `C[C@@H]1NC(=O)[C@@H]2CCCN2C1=O` [Compound 17, cyclo(L-Ala-L-Pro)], for which the “inhibition type against AGS” value against α-Glucosidase (AGS) [1] is “non-competitive and uncompetitive mixed-type of inhibition”. For the same compound, the results for the Vmax on α-Glucosidase (AGS) [1] (setting [5]), at α-Glucosidase (AGS) [1] (setting [9]) and at α-Glucosidase (AGS) [1] (setting [10]) were 0.79 ± 0.02 µM/min, 0.66 ± 0.03 µM/min and 0.47 ± 0.01 µM/min, respectively. Moreover, the IC50 on α-Glucosidase (AGS) [2] was 56.75 ± 0.32 µM. Moreover, the IC50 at 48 h in data set [3] is > 100 µM.

As usually defined, the Vmax is the rate approached at saturating substrate. In general, Ki refers to the dissociation constant of the complex between target and ligand, obtained from inhibition or displacement. As a reminder, the IC50 is the concentration that gives 50% inhibition.
